{
  "source": "patent US12351574B2",
  "about": "“Selective ligands for modulation of GIRK channels” (Northeastern University, priority 2018, dated 2025)",
  "key": {"[1]": {"target": "T1, GIRK1/4 (Homo sapiens, UniProt P48544+P48549)", "T1 sequence (P48549 1-501)": "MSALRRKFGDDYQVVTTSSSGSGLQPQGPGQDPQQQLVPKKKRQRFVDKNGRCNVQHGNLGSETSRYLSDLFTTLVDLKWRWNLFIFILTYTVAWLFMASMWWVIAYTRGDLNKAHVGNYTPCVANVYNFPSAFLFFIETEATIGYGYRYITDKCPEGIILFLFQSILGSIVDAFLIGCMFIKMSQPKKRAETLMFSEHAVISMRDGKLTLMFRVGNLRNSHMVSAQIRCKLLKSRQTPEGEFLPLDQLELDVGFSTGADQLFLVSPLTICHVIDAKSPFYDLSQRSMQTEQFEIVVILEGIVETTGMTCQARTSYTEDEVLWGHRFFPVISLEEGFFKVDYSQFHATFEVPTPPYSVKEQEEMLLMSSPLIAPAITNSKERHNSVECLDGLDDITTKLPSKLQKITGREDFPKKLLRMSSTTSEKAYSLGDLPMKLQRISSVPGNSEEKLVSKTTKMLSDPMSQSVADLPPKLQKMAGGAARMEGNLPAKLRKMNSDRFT", "T1 sequence (P48544 1-419)": "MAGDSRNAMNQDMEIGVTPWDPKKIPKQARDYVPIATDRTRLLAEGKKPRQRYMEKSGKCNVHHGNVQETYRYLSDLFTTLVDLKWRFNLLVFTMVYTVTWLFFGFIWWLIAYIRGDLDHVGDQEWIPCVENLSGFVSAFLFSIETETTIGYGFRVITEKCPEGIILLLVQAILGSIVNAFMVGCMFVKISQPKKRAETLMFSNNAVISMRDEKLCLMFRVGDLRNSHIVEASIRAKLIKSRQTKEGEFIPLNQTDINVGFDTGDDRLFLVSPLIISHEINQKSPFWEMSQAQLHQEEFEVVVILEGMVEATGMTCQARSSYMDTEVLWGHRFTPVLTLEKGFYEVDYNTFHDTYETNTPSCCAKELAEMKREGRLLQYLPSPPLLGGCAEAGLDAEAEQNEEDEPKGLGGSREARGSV", "experiment": "diC8-PIP2 concentration-response (NPo), inside-out macropatches from Xenopus oocytes, GIRK1/4", "assay_type": "cell-based", "design": "expressed in transfected cells; host or cells: Xenopus laevis oocytes (cRNA injection)", "conditions": "in the presence of 10 μM compound; for apparent affinity of GIRK1/4 channels for diC8-PIP2: control 48.4±8 μM", "from_the_text": "(§1) The inventors next turned to inside-out macropatches from Xenopus oocytes to compare changes in the PIP2 sensitivity by examining diC8 concentration-responses in the absence and presence of saturating concentrations of each of the activating compounds. […] In FIG. 14B, the control plot overlays the GAT1508 and GAT1521 plots; only ML297 was able to left-shift the sensitivity of GIRK1/4 heteromers to PIP2, while both GAT1508 and GAT1521 were ineffective in changing the sensitivity of these heteromers to PIP2.\n(§2) Xenopus laevis oocyte expression: Plasmid DNAs of GIRK channel subunits were linearized prior to in vitro transcription. Capped RNAs were transcribed using mMESSAGE mMACHINE T7 Transcription Kit (Thermo Fisher Scientific). Xenopus oocytes were surgically extracted, dissociated and defolliculated by collagenase treatment, and microinjected with 50 nl of a water solution containing 1 ng of each GIRK subunit RNA. For TEVC experiments, oocytes were kept 2 days at 17° C. before recording, while for NPo experiments oocytes were incubated for up to 4 days at 17° C.\n(§3) Oocyte macropatch studies: Macropatch GIRK channel activity was recorded from devitellinized oocytes under the inside-out mode of standard patch clamp methods using an AM2400 patch clamp amplifier (A-M systems). […] Oocytes were bathed with a solution comprising (in mM): 96 KCl, 5 EGTA, 1 MgATP and 10 HEPES (pH 7.4). Current amplitudes were measured at −80 mV with a sampling rate of 10 kHz. Data were analyzed using WinEDR and Clampfit software (Molecular Devices)."}, "[2]": {"target": "T2, GIRK1/2 (UniProt P48542+P48549)", "T2 sequence (P48549 1-501)": "T1 sequence (P48549 1-501)", "T2 sequence (P48542 1-425)": "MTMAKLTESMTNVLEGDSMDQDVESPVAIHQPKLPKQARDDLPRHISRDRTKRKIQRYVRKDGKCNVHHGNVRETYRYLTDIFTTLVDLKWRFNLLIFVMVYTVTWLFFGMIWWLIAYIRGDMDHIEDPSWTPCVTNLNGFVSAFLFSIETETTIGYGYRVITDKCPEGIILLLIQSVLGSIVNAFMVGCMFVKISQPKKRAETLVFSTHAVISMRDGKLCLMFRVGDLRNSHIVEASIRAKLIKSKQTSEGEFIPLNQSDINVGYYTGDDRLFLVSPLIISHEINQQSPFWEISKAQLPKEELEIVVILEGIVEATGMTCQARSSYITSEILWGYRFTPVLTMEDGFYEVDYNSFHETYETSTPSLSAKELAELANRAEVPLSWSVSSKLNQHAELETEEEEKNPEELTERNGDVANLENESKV", "experiment": "diC8-PIP2 concentration-response (NPo), inside-out macropatches from Xenopus oocytes, GIRK1/2", "assay_type": "cell-based, human GIRK1, mouse GIRK2", "design": "expressed in transfected cells; host or cells: Xenopus laevis oocytes (cRNA injection)", "conditions": "in the presence of 10 μM compound; for EMAX of diC8-PIP2 response (NPo), GIRK1/2: control 5.7±0.3; for apparent affinity of GIRK1/2 channels to diC8-PIP2: control 36±7 μM", "from_the_text": "as §1, §2, §3"}},
  "data": [
    {"smiles": "Cc1cc(NC(=O)Nc2ccc(Br)s2)n(-c2ccccc2)n1", "note": "[GAT1508, 1-(5-bromothiophen-2-yl)-3-(3-methyl-1-phenyl-1H-pyrazol-5-yl)urea]", "values": [
      {"measurement": "apparent affinity of GIRK1/4 channels for diC8-PIP2", "setting": "[1]", "value": "46 ± 7.4", "unit": "µM"},
      {"measurement": "EMAX of diC8-PIP2 response (NPo), GIRK1/2", "setting": "[2]", "value": "10.5±0.3"},
      {"measurement": "apparent affinity of GIRK1/2 channels to diC8-PIP2", "setting": "[2]", "value": "5.5 ± 7", "unit": "µM"}
    ]},
    {"smiles": "Cc1cc(NC(=O)Nc2ccc(C)s2)n(-c2ccccc2)n1", "note": "[GAT1521, 1-(3-methyl-1-phenyl-1H-pyrazol-5-yl)-3-(5-methylthiophen-2-yl)urea]", "values": [
      {"measurement": "apparent affinity of GIRK1/4 channels for diC8-PIP2", "setting": "[1]", "value": "51 ± 6.5", "unit": "µM"},
      {"measurement": "EMAX of diC8-PIP2 response (NPo), GIRK1/2", "setting": "[2]", "value": "9.1±0.2"},
      {"measurement": "apparent affinity of GIRK1/2 channels to diC8-PIP2", "setting": "[2]", "value": "11 ± 2", "unit": "µM"}
    ]},
    {"smiles": "Cc1cc(NC(=O)Nc2ccc(F)c(F)c2)n(-c2ccccc2)n1", "note": "[ML297, reference compound]", "values": [
      {"measurement": "EMAX of diC8-PIP2 response (NPo), GIRK1/4", "setting": "[1]; control 4.4±0.2", "value": "5.4±0.2"},
      {"measurement": "apparent affinity of GIRK1/4 channels for diC8-PIP2", "setting": "[1]", "value": "17.4 ± 2", "unit": "µM"},
      {"measurement": "EMAX of diC8-PIP2 response (NPo), GIRK1/2", "setting": "[2]", "value": "7.5±0.4"},
      {"measurement": "apparent affinity of GIRK1/2 channels to diC8-PIP2", "setting": "[2]", "value": "23 ± 5", "unit": "µM"}
    ]}
  ]
}
